The text below walks through data of patent US20130023504A1, “Modulation of Prostaglandin/Cyclooxygenase Metabolic Pathways” (HUNTER-FLEMING LIMITED, priority 2006, published 2013).

One assay deals with rat sensory neurones. In words: Cisplatin-induced neuronal cell death, number of cell bodies per field in dorsal root ganglia sensory neurones (anti MAP-2). Particulars: for % Control without cisplatin (cell bodies) / number of cell bodies per field, Average: cisplatin 3 μg/ml. It counts as cell-based. The method, then: Primary cultures of dissociated dorsal root ganglia sensory neurones were incubated with 3 μg/ml cisplatin, with and without 7β-OH EPIA for 48 hours and 72 hours and the following parameters were evaluated:
neurone cell bodies stained with an anti MAP 2 antibody (microtubule associated protein 2)
Rat sensory neurones were prepared according to the method described by Hall et al 1997 [Hall et al. (J. Neurosci. 1997 Apr. 15; 17(8); 2775-84]. Briefly, a female rat (15 days gestation) was killed by cervical dislocation (Rats Wistar; Janvier, Le Genest-St-lsle, France) and the foetuses removed from the uterus. Their spinal cords with the dorsal root ganglia (DRG) were removed and placed in ice-cold medium of Leibovitz (L15, Fisher 11415-049) containing Penicillin 50 UI/ml-Streptomycin 50 μg/ml (PS, 1%) and bovine serum albuminutes (BSA 1%, Sigma A6003). The DRG were recovered and dissociated by trypsinisation for 20 minutes at 37° C. (trypsin EDTA 10×, 10%, Fisher 15400054) diluted in PBS without calcium and magnesium (Fisher 2007-03). The reaction was stopped by addition of Dulbecco modified Eagle medium (DMEM, Fisher 21969-035) containing DNase I grade II (0.1 mg/ml Roche diagnostic 104159) and foetal bovine serum (FBS 10%, Fisher 10270-098). The cell suspension was triturated with a 10 ml pipette and centrifuged at 350×g for 10 minutes at room temperature. The pellet of dissociated cells was then resuspended in defined culture medium.
Viable cells were counted in a Neubauer cytometer using the trypan blue exclusion test (Sigma) and seeded at a density of 30 000 cells/well in 96 well-plates (Nunc). Wells were pre-coated with poly-L-lysine (10 μg/ml, Sigma P2636) in ultra pure sterile water (Merck Eurolab 60759.01).
Cells were allowed to adhere for 2 h and maintained in a humidified incubator at 37° C. in 5% CO2/95% air atmosphere.
After 5 days of culture, the culture medium was changed into a defined culture medium following the different conditions described below:
Test compound 7β-OH EPIA (1 nM, 10 nM and 100 nM)+cisplatin (3 μg/ml)
Reference compound NGF (10 ng/ml)+cisplatin (3 μg/ml)
Six wells per condition were carried out to assess neuronal survival. After 48 hours and 72 hours of incubation, the neuronal cells were fixed for 5 minutes in an ethanol/acetic acid solution (95%/5%) at −20° C. and rinsed 3 times in PBS.
Cell bodies of sensory neurones were labelled by monoclonal anti MAP-2 antibody (Sigma M4403) and the neurite of sensory neurones were labelled by monoclonal β-Tubulin antibody (Sigma T8660). These antibodies were diluted at 1:400 in incubation solution (PBS with 5% of FCS and 0.1% of saponin, Sigma S-7900). These antibodies specifically label neurone cell bodies and neuritis, respectively.
After 2 hours of incubation, the cells were washed in PBS and incubated with Alexa Fluor 488 goat anti mouse IgG (Molecular Probes A11001) diluted at 1:300 in incubation solution to reveal the MAP-2 and the β-Tubulin antibodies. Cell nuclei were stained with a fluorescent marker (Hoechst staining solution, SIGMA H6024, 1 μg/ml in incubation solution during 1 hour).
For each condition, 2 pictures per well (12 pictures per condition) were taken using In Cell Analyzer 1000 (Amersham Biosciences) controlled by the computer software In Cell Analyzer 1000 3.2. For the MAP-2 labelling, the magnification was ×10, for the β-Tubulin labelling, the magnification was ×20. For each labelling, all the images were taken in the same conditions.
Analysis of the number of cell bodies labelled with anti-MAP-2 antibodies, and total length of neurites labelled with anti β-Tubulin antibodies, were carried out using In Cell Analyzer 1000 3.2.Workstation software. The results were expressed in percentage compared to the vehicle. The comparisons of each group were carried out using the unpaired T test.

The test system of assay [1] is control rats without colitis. In words: Colonic prostaglandin levels and COX-2/PG synthase mRNA in control rats without colitis. It counts as in vivo, rat. The procedure:
After a 7-day adaptation period, animals were divided into two control groups (sham-control and 7β-hydroxy-EPIA-treated control group and two colitis groups (colitis and 7β-hydroxy-EPIA-treated colitis). 7β-Hydroxy-EPIA (0.01, 0.1, and 1 mg/kg body weight dissolved in DMSO) or DMSO alone (vehicle) was administered i.p. once a day for 7 days, from day 0 to day 7. Colitis was induced from day 7 to 14 by addition of DSS (molecular weight 36-50 kDa; MP Biomedicals, France) to drinking water. The two control groups received tap water only.
Commercially available EIA kits were used for the determination of PGE2 levels (Oxford Biomedical Research, UK) and 15d-PGJ2 levels (Assay designs, Euromedex, France) in colonic supernatants obtained from fresh homogenates. Measurement of PGD2 levels was obtained using the prostaglandin D2-MOX EIA kit (Cayman Chemical, Euromedex). In this case, and prior to assay, the fresh samples were immediately treated with the MOX-HCl reagent which converted PGD2 into PGD2-MOX, thus preventing any further chemical degradation.
Total RNA from fresh colonic samples (300 mg) was extracted using Trizol Reagent (Invitrogen, Cergy-Pontoise, France). Poly(A) RNA was purified from total RNA with MicroPoly(A)Purist kit (Ambion, Huntingdon, UK). cDNA was synthesized using the Superscript first strand synthesis system kit (Invitrogen). Real-time PCR was performed using mixtures (25 μL) containing 2.5× RealMaster Mix/20×SYBR solution (11.25 μL) (Eppendorf, Le Pecq, France) and 300 nM forward and reverse primers. Reactions were run on a RealPlex ep gradient S mastercycler (Eppendorf). The cycling conditions were at 95° C. for 10 minutes and 40 cycles at 95° C., 55° C. and 68° C. for 15 seconds, 30 seconds and 30 seconds, respectively. Each assay included a standard curve of four serial dilution points of control cDNA. Oligonucleotide primers were synthesized by Genecust/Distribio (Evry, France). The specificity of the amplified product was monitored by examination of the product melting curve and confirmed by analysis on agarose gel electrophoresis. The levels of mRNA were expressed relative to that of the DMSO control, after normalization to HPRT1.

“And” between values parts separate entries of the source, which are not always exact repeats. Equal entries are not always repeated.

With `CC12CCC3C(C1CCC2=O)[C@@H](O)C[C@H]1C[C@@H](O)CCC31C` (stereo partly drawn) [Compound 7β-OH-EPIA, 7β-hydroxy-EPIAndrosterone], the “reduction of cisplatin-induced cell death” value in the assay with rat sensory neurones (1 nM, 48 hours) came to 53.1%; in the assay on rat sensory neurones (1 nM, 72 hours) it was 93%; in the assay on rat sensory neurones (10 nM, 48 hours), 18.7%; in the assay with rat sensory neurones (10 nM, 72 hours), 104%; in the assay on rat sensory neurones (100 nM, 48 hours), 43.8%; in the assay on rat sensory neurones (100 nM, 72 hours), 93%. The “% Control without cisplatin (cell bodies)” value in the assay on rat sensory neurones (1 nM, 48 hours) is recorded as 85%; in the assay with rat sensory neurones (1 nM, 72 hours) it was 98%; in the assay with rat sensory neurones (10 nM, 48 hours) it was 75%; in the assay with rat sensory neurones (10 nM, 72 hours), 1.2%; with rat sensory neurones (100 nM, 48 hours), 82%; with rat sensory neurones (100 nM, 72 hours) it was 97%. In addition, the “number of cell bodies per field, Average” value is 51 and 51.42 in the assay on rat sensory neurones (1 nM, 48 hours); 52 and 52.42 in the assay with rat sensory neurones (1 nM, 72 hours); 45 and 45.50 with rat sensory neurones (10 nM, 48 hours); 55 and 54.58 in the assay on rat sensory neurones (10 nM, 72 hours); 50 and 49.58 in the assay on rat sensory neurones (100 nM, 48 hours); 52 and 52.25 in the assay with rat sensory neurones (100 nM, 72 hours). The “increase of colonic 15d-PGJ2 above basal levels” value in assay [1] (0.1 mg/kg day 0 to day 7, day 2) amounted to 51 fold. In assay [1] (0.1 mg/kg, at 15 h), the “increase in COX-2 mRNA levels” value is 1.5 fold. In addition, in assay [1] (0.1 mg/kg, between 6 h and 15 h), the “mPGES-1 mRNA expression” value was “increased transiently”. Also, in assay [1] (0.1 mg/kg, course of the experiment), the “H-PGDS mRNA synthesis” value is listed as “remained unchanged”. Moreover, in assay [1] (control rats without colitis), the “PGE2 and PGD2 colonic tissue levels” value is listed as “did not alter”.
